# From patent publication US20250122174A1 (Shenzhen Yuanli Shenwan Innovative Medicine Co., Ltd., priority 2022, published 2025)
# Molecular target: HPK1 (Homo sapiens (Human), UniProt Q92918)
# Assay: HPK1 Inhibition Assay (ADP-Glo kinase assay)
# Format: biochemical
# Conditions: ATP 10 μM
# Procedure, shortened: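 ADP-Glo luminescence read-out after 1 h room-temperature kinase reaction with 10 μM ATP and 0.1 μg/ml MBP. Recombinant human HPK1 at 7.5 ng/μl; buffer 40 mM Tris pH 7.5, 20 mM MgCl2. Compounds serially diluted 5-fold over 10 points from 10 mM DMSO stock.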
# HPK1, sequence (Q92918 1-346 limits assumed): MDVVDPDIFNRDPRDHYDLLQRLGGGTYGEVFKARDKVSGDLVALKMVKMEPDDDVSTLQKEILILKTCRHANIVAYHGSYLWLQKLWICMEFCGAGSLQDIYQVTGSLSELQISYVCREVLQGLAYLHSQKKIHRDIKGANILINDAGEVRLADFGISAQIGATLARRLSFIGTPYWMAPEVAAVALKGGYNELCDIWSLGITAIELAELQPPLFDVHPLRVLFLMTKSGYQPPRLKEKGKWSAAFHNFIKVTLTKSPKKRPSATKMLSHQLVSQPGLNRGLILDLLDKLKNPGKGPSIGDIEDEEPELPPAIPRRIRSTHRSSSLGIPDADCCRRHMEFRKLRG
row,SMILES,IC50 [nM]
1,"CC1(C)CN(c2c(NC(=O)c3ccc(=O)n(-c4c(F)cccc4F)n3)ccc3c2cnn3[C@H]2CCOC2)C[C@@H]1N [Example 269, N-(4-((R)-4-amino-3,3-dimethylpyrrolidin-1-yl)-1-((S)-tetrahydrofuran-3-yl)-1H-indazol-5-yl)-1-(2,6-difluorophenyl)-6-oxo-1,6-dihydropyridazine-3-carboxamide]",< 100
2,"N#Cc1ccncc1-c1ccc(NC(=O)c2ccc(=O)n(-c3c(F)cccc3F)n2)c(N2CCC[C@@H](N)C2)c1 [Example 345, (R)-N-(2-(3-aminopiperidin-1-yl)-4-(4-cyanopyridin-3-yl)phenyl)-1-(2,6-difluorophenyl)-6-oxo-1,6-dihydropyridazine-3-carboxamide]",< 100
3,"Cn1c(C(F)(F)F)nc2c(N3CCC[C@H]3CN)c(NC(=O)c3ccnn(-c4c(F)cccc4F)c3=O)ccc21 [Example 40, (S)-N-(4-(2-(aminomethyl)pyrrolidin-1-yl)-1-methyl-2-(trifluoromethyl)-1H-benzo[d]imidazol-5-yl)-2-(2,6-difluorophenyl)-3-oxo-2,3-dihydropyridazine-4-carboxamide]",< 100
4,"[2H]C([2H])([2H])C([2H])(n1ncc2c(N3C[C@@H](C)[C@@H](N)C3)c(NC(=O)c3ccc(=O)n(-c4c(F)cccc4F)n3)ccc21)C([2H])([2H])[2H] [Example 275, N-(4-((3R,4R)-3-amino-4-methylpyrrolidin-1-yl)-1-(propan-2-yl-d7)-1H-indazol-5-yl)-1-(2,6-difluorophenyl)-6-oxo-1,6-dihydropyridazine-3-carboxamide]",< 100
5,"CC(C)c1nc2c(N3CC[C@@H](N)C3)c(NC(=O)c3ccc(=O)n(-c4c(F)cccc4F)n3)ccc2n1C [Example 109, (R)—N-(4-(3-aminopyrrolidin-1-yl)-2-isopropyl-1-methyl-1H-benzo[d]imidazol-5-yl)-1-(2,6-difluorophenyl)-6-oxo-1,6-dihydropyridazine-3-carboxamide]",< 100
6,"CSCc1nc2c(N3CC[C@@H](N)C3)c(NC(=O)c3ccc(=O)n(-c4c(F)cccc4F)n3)ccc2n1C [Example 162, (R)-N-(4-(3-aminopyrrolidin-1-yl)-1-methyl-2-((methylthio)methyl)-1H-benzo[d]imidazol-5-yl)-1-(2,6-difluorophenyl)-6-oxo-1,6-dihydropyridazine-3-carboxamide]",< 100
7,"CC(C)n1ncc2c(N3C[C@@H](C)[C@@H](N)C3)c(NC(=O)c3ccc(=O)n(-c4c(F)cccc4F)n3)ccc21 [Example 180, N-(4-((3R,4R)-3-amino-4-methylpyrrolidin-1-yl)-1-isopropyl-1H-indazol-5-yl)-1-(2,6-difluorophenyl)-6-oxo-1,6-dihydropyridazine-3-carboxamide]",< 100
8,"CCn1cc2c(N3CC[C@@H](N)C3)c(NC(=O)c3ccc(=O)n(-c4c(F)cccc4F)n3)ccc2n1 [Example 329, (R)-N-(4-(3-aminopyrrolidin-1-yl)-2-ethyl-2H-indazol-5-yl)-1-(2,6-difluorophenyl)-6-oxo-1,6-dihydropyridazine-3-carboxamide]",< 100
9,"CC(C)c1nc2c(N3CC[C@@H](NC(=O)CN)C3)c(NC(=O)c3ccc(=O)n(-c4c(F)cccc4F)n3)ccc2n1C [Example 131, (R)-N-(4-(3-(2-aminoacetamido)pyrrolidin-1-yl)-2-isopropyl-1-methyl-1H-benzo[d]imidazol-5-yl)-1-(2,6-difluorophenyl)-6-oxo-1,6-dihydropyridazine-3-carboxamide]",< 100
10,"N[C@@H]1CCN(c2c(NC(=O)c3ccc(=O)n(-c4c(F)cccc4F)n3)ccc3c2cnn3CC2CC2)C1 [Example 295, (R)-N-(4-(3-aminopyrrolidin-1-yl)-1-(cyclopropylmethyl)-1H-indazol-5-yl)-1-(2,6-difluorophenyl)-6-oxo-1,6-dihydropyridazine-3-carboxamide]",< 100
